Data taken from US8686037B2, “Use of piracetam for treating diabetic nephropathy” (Uniwersytet Jagiellonski, priority 2009, dated 2014).

What was measured:
[1] = target: T1, albumin (Homo sapiens, UniProt P02768); test: Measurement of albumin glycation using spectrofluorimetric method (Ex/Em 370/440 nm); assay type: biochemical; details: 5 mM; albumin incubated with glucose 0.5 M for 4 weeks
Procedure: Glycation of protein in vitro was carried out according to following scheme: • 50 mg of protein (albumin, myoglobin) was dissolved in 1 ml 0.01M PBS (pH 7.4), containing D-glucose (0.1; 0.3; 0.5; 1M) and 5 mM toluene (as a bacteriostatic compound). The examined drug or aminoguanidine hydrochloride were added to samples at final concentrations from 0.1 mM to 5 mM. Samples were incubated at 37° C., in dark, for a specified period of time (1, 2, 3 and 4 weeks). Then, the protein was concentrated by ultrafiltration (30 min at 4000×g, 16° C.) with Amicon 50 cartridges (Millipore) with cut-off of 50 kDa (in case of albumin) or Amicon 10 cartridges with cut-off of 10 kDa (in case of myoglobin). The concentrated protein samples were dialyzed for 24 hrs, against distilled water, using dialysis membranes: Spectra Por (cut-off of 50 kDa for albumin and cut-off of 12-14 kDa for myoglobin). Then the samples were lyophilized overnight. • Control samples were prepared as above except of addition of glucose (control I) or drugs (control II). Sugar residues are characterized by fluorescence—Ex/Em 370/440 nm The action of drug is expressed by a suppression of the intensity of fluorescence. Lyophylized protein samples were dissolved in 0.01M PBS (pH 7.4), at concentration 0.5 mg protein/1 ml of buffer. […] Fluorescence intensity was measured at 440 nm emission upon excitation of 370 nm.

[2] = Glycaemia in streptozotocin-induced diabetes model; assay type: in vivo, Sprague-Dawley rats; details: rats injected with STZ; 354±40 mg/kg/day in drinking water, 8 weeks
Procedure: (§1) All experimental studies using animals were approved by an Ethical Committee at the Jagiellonian University. Diabetes model was established by the single, intraperitoneal administration of streptozotocin (STZ, 75 mg/kg in citrate buffer, pH 4.5) to three-month Sprague-Dawley rats. In order to maintain glycaemia between 350 and 450 mg/dL, animals were treated twice a week by insulin (neutral protamine Hagedorn, NPH, 2-3 U/300 g of body weight).
(§2) The rats were divided into three groups (each one of n=4 animals): “control” group—animals injected with citrate buffer only (sham animals), “diabetes” group—STZ treated animals and “STZ+drug” group—STZ-rats treated with examined drug (354±40 mg/kg/day in drinking water). The experiment lasted 8 weeks. Animals were anesthetized and killed, and both the tissue samples (kidneys, heart, lungs, brain) as well as blood samples were harvested. The presence of AGEs was evaluated by immunohistochemistry, with use of specific antibodies (Abcam, USA).

[3] = system: AGEs; test: Immunohistochemistry for AGEs in renal glomeruli, streptozotocin-induced diabetes model; assay type: in vivo, Sprague-Dawley rats; details: STZ rats; 354±40 mg/kg/day in drinking water, 8 weeks; kidney
Procedure: as §1, §2

[4] = target: T1, albumin; test: Measurement of glycation by mass spectrometry (gain of molecular weight of albumin incubated with glucose); assay type: biochemical
Procedure: Glycation of protein in vitro was carried out according to following scheme: • 50 mg of protein (albumin, myoglobin) was dissolved in 1 ml 0.01M PBS (pH 7.4), containing D-glucose (0.1; 0.3; 0.5; 1M) and 5 mM toluene (as a bacteriostatic compound). The examined drug or aminoguanidine hydrochloride were added to samples at final concentrations from 0.1 mM to 5 mM. Samples were incubated at 37° C., in dark, for a specified period of time (1, 2, 3 and 4 weeks). Then, the protein was concentrated by ultrafiltration (30 min at 4000×g, 16° C.) with Amicon 50 cartridges (Millipore) with cut-off of 50 kDa (in case of albumin) or Amicon 10 cartridges with cut-off of 10 kDa (in case of myoglobin). The concentrated protein samples were dialyzed for 24 hrs, against distilled water, using dialysis membranes: Spectra Por (cut-off of 50 kDa for albumin and cut-off of 12-14 kDa for myoglobin). Then the samples were lyophilized overnight. • Control samples were prepared as above except of addition of glucose (control I) or drugs (control II). The method is based on a measurement of protein molecular weight (albumin, myoglobin), which is increased in proportion to the number of bound sugar moieties. […] Based on obtained MS spectra, average protein molecular weight was calculated using BioWorks 1.0 software (Finnigan, San Jose, USA).

T1 sequence (P02768 25-609, species assumed): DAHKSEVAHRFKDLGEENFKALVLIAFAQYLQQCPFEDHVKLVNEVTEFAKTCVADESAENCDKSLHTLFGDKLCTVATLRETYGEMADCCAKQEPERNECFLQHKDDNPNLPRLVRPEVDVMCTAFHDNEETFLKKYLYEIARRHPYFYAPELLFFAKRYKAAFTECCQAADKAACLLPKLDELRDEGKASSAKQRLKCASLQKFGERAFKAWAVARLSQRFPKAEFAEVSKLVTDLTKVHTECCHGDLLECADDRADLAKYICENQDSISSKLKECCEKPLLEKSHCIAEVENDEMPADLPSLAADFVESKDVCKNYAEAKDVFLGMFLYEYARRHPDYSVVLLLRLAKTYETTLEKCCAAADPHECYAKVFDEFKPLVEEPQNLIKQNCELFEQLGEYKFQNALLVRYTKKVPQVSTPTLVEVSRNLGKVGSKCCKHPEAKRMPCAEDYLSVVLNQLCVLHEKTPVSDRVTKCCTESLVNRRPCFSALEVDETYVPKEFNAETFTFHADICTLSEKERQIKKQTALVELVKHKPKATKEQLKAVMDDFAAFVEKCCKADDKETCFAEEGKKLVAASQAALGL

## Cl.N=C(N)NN [aminoguanidine, aminoguanidine hydrochloride]
[1]
  inhibition of glycation (spectrofluorimetric method): 67%

## NC(=O)CN1CCCC1=O [tested compound, 2-(2-oxo-1-pyrrolidin-1-yl) acetamide]
[2]
  glycaemia: 429 ± 65.0 mg/dL
  influence on glycaemia: did not influence glycaemia
[1]
  inhibition of glycation (spectrofluorimetric method): 45%
[3]
  number of AGE-positive glomeruli: significantly reduced
  severity of changes in glomeruli: significantly reduced
[4]; 5 mM, albumin 50 mg/ml, glucose 0.5 M, 4 weeks, compared to mass of albumin incubated with glucose alone
  inhibition of protein glycation (mass spectrometry method): 33%
[4]; in vitro model, FIG. 1, strength comparable to aminoguanidine
  addition of glucose moieties to albumin: inhibited dose-dependently
